Legend:
Format in all cases: cell-based
human NKT cell line [1] = assay: NKT cell activating action (IFN-γ production), co-culture of ligand-pulsed cells with human NKT cell line, ELISA; settings: ligand 100 ng/mL; for IFN-γ production from NKT cells induced by ligand-pulsed CD14 positive cells: 48 hr pulse, 1×10^5 pulsed cells with 1×10^5 human NKT cells, 48 hr
Description: For preparation of the cells obtained by culturing human CD14 positive cells (monocytes) immediately after separation using anti-CD14 antibody and human CD14 negative cells or human Elu-CD14 positive cells (monocytes) for 2 days with GM-CSF and NKT cell ligand RK-163 (respectively called “RK-163-pulsed human CD14 positive cell”, “RK-163-pulsed human CD14 negative cell”, “RK-163-pulsed human Elu-CD14 positive cell”), and the dendritic cells induced to differentiate in 2)-(2) by culturing for 6 days with addition of GM-CSF and IL-4 (called “RK-163-pulsed human dendritic cell”), RK-163 (bulk powder was dissolved in PBS added with DMSO and 0.5% Tween 20) was added to each cell to a final concentration of 100 ng/mL, and the cells were cultured at 37° C., 5% CO2 for 48 hr to produce “RK-163-pulsed cells”. After culturing, the recovered cells were centrifugation washed twice, and the number of viable cells after Trypan Blue staining was calculated by TC20™ Automated Cell Counter. RK-163-pulsed cells and human NKT cell line were respectively suspended in 10% fetal calf serum (Sigma, Lot No. 114K525)-added RMPI-1640 (Invitrogen) to 1×10^6/mL, each cell suspension was seeded at a cell concentration of 1×10^5/0.1 mL/well in a 96-well round-bottomed culture plate, and the cells were cultured at 37° C., 5% CO2 for 48 hr. After culturing, 200 μL of supernatant was recovered, and the produced and secreted IFN-γ was measured using a commercially available ELISA kit (BD Biosciences).
CD14 positive cells immediately after separation of anti-CD14 antibody-bound microbeads were separated, pulse-cultured in a medium containing NKT ligand RK-163 or other NKT cell ligand α-GalCer at 100 ng/mL and GM-CSF (53.3 ng/mL) for various times (0, 16, 48, 64 and 72 hr), and an influence on the activity of NKT cells to induce IFN-γ production was compared. As a result, IFN-γ production inducing activity was found from 16 hr after pulsing and high activity was found 48-72 hr later (FIG. 4, left). The recovery rate and survival rate at that time were highest at 48 hrs (FIG. 4, right). […]
Using RCAI-85 (100 ng/mL), RCAI-137 (100 ng/mL) instead of RK-163, CD14 positive cells (monocytes) isolated from human peripheral blood were pulsed for 48 hr to give each ligand-pulsed CD14 positive cell. 1×10^5 RK-163-pulsed CD14 positive cells or other ligand-pulsed CD14 positive cells were seeded in a 96 well round-bottomed plate, and cocultured with 1×10^5 human NKT cells for 48 hr in a 10% FBS-containing complete RPMI-1640 medium, and the concentration of IFN-γ in the culture medium was measured.

[2] = tested on: NCI H460 cells (human lung cancer cell line); assay: Cytotoxic activity of NKT cells stimulated with pulsed cells against NCI H460 cells
Description: Human NKT cells were stimulated by culturing for 8-10 days with the “RK-163-pulsed human CD14 positive cell” or “RK-163-pulsed human dendritic cell” produced in the same manner as above in a mixed medium of AIM-V (50%) and RPMI-1640 (45%) and containing FCS (5%) (lot suitable for proliferation of iPS cells), sodium pyruvate, NEAA, 2-ME, IL-2 (100 U/mL) (Imunace). The mixing ratio of NKT cells and RK-163-pulsed CD14 positive cells or RK-163-pulsed dendritic cells was set to 1:1.5-5. The obtained human NKT cells were cultured for 4 hr together with NCI H460 cells (human lung cancer cell line) in an FBS (10%)-containing complete RPMI-1640 medium on a 96 well round-bottomed plate and the cytotoxic activity against NCI H460 cells was examined. The number of the target cells (NCI H460 cells) was set to 1×10^4 cells/well and the effector:target ratio was set to 3:1 and 10:1.

human NKT cell line [3] = assay: NKT cell activating action (IFN-γ production) of RK-163-pulsed human CD14 positive cell lines; settings: U937 cells, RK-163 100 ng/mL, presence or absence of GM-CSF, 2-48 hr
Procedure: Human CD14 positive cell line THP-1 cells and U937 cells were suspended in RPMI1640/10% FBS culture medium to 1-3×10^6 cells/ml, and seeded in a 24-well culture plate (Falcon) at a cell density of 1 mL/well. Simultaneously, RK-163 (bulk powder was dissolved in PBS added with DMSO and 0.5% Tween 20) was added to a final concentration 100 ng/mL, […] to give “RK-163-pulsed human CD14 positive cell line”.
iPS-CD14 positive cells were cultured for 8-48 hr in the presence of RK-163 in the same manner as for THP-1 and U937 to give “RK-163-pulsed human iPS-CD14 positive cell line”.
[…] After culturing, the recovered cells were washed twice by centrifugation, and the number of viable cells after Trypan Blue staining was calculated by TC20™ Automated Cell Counter. RK-163-pulsed cells and human NKT cell line were respectively suspended in 10% fetal bovine serum (Sigma, Lot No. 114K525)-added RMPI-1640 (Invitrogen) to 1×10^6/mL, each cell suspension was seeded at a cell concentration of 1×10^5/0.1 mL/well in a 96-well round-bottomed culture plate, and the cells were cultured at 37° C., 5% CO2 for 48 hr. After culturing, 200 μL of supernatant was recovered, and the produced and secreted IFN-γ was measured using a commercially available ELISA kit (BD Biosciences). […]

Row | SMILES | pulse time with high IFN-γ production inducing activity (human NKT cell line [1]; CD14 positive cells, GM-CSF 53.3 ng/mL) [h] | pulse time from which IFN-γ production inducing activity was found (human NKT cell line [1]; CD14 positive cells, GM-CSF 53.3 ng/mL, times 0, 16, 48, 64, 72 hr) [h] | cytotoxic activity induced on human NKT cells as compared to α-GalCer [2] | pulse time from which IFN-γ production inducing activity was found (human NKT cell line [3]) [h] | IFN-γ production from NKT cells induced by ligand-pulsed CD14 positive cells (human NKT cell line [1])
1 | CCCCCCCCCCCCCCCCCCCCCCCCCC(=O)N[C@@H](CO[C@H]1O[C@H](COC(=O)NC)[C@H](O)[C@H](O)[C@H]1O)[C@H](O)[C@H](O)CCCCCCCCCCCCCC [RK-163] | 48 to 72 | ≥ 16 | stronger | ≥ 2 | 
2 | CCCCCCCCCCCCCCCCCCCCCCCCCC(=O)N[C@@H](CO[C@H]1O[C@H](COC(=O)NO)[C@H](O)[C@H](O)[C@H]1O)[C@H](O)[C@H](O)CCCCCCCCCCCCCC [RCAI-137] |  |  |  |  | strongly induce
3 | CCCCCCCCCCCCCCCCCCCCCCCCCC(=O)N[C@@H](CO[C@H]1O[C@H](COCC)[C@H](O)[C@H](O)[C@H]1O)[C@H](O)[C@H](O)CCCCCCCCCCCCCC [RCAI-85] |  |  |  |  | strongly induce
